The values below come from ChEMBL document CHEMBL3301472, “MMV Malaria Box HIV and cytotoxicity screening”.

Series [1] concerns Human immunodeficiency virus 1. Briefly: MMV: HIV CXCR4-tropic env NL4-3 pseudovirus assay produces luciferase signal in lieu of replicating viral particles Day 3 pi, U87-CD4-CXCR4, % inhibition at 5 mM compound. Conditions: Human immunodeficiency virus 1, NL4-3, U87.CD4.CXCR4, 72 h. The series is classed as functional. Further details: dose or concentration left out as unconfirmed.

The nature of series [2]: MMV: MTT Cytotoxicity Assay Day 3 pi, U87-CD4-CCR5 cells, % cell death @ 5mM compound. The series is classed as toxicity, cell-based. As to conditions: human, u87-cd4-ccr5, 5000 µM.
A short description of series [3]: MMV: MTT Cytotoxicity Assay Day 3 pi, U87-CD4-CXCR4 cells, % cell death @ 5mM compound. The format is toxicity, cell-based. Conditions: human, u87-cd4-cxcr4, 5000 µM.
Series [4] is described as follows: MMV: MTT Cytotoxicity Assay Day 7 pi of Assay #6 (compound washed out Day 1 pi), U87-CD4-CCR5 cells, % cell death @ 5mM compound. As to conditions: human, u87-cd4-ccr5, 5000 µM. The format is toxicity, cell-based.
Series [5] can be described thus: MMV: MTT Cytotoxicity Assay Day 7 pi of Assay #7 (compound washed out Day 1 pi), U87-CD4-CXCR4 cells, % cell death @ 5mM compound. The series is classed as toxicity, cell-based. Conditions: human, u87-cd4-cxcr4, 5000 µM.
In series [6] the test system is Human immunodeficiency virus 1. Briefly: MMV: HIV JRFL CCR5-tropic replication-competent virus, NO washout, P24 ELISA Day 7 pi, U87-CD4-CCR5, % inhibition at 5 mM compound. The series is classed as functional. Further details: dose or concentration left out as unconfirmed. As to conditions: Human immunodeficiency virus 1, JR-FL, U87/CD4/CCR5, 168 h.
Series [7] is described as follows: MMV: MTT Cytotoxicity Assay Day 7 pi of Assay #10 (NO washout), U87-CD4-CCR5 cells, % cell death @ 5mM compound. The series is classed as toxicity, cell-based. Conditions: human, u87-cd4-ccr5, 5000 µM.
Series [8] can be described thus: MMV: MTT Cytotoxicity Assay Day 7 pi of Assay #11 (NO washout), U87-CD4-CXCR4 cells, % cell death @ 5mM compound. The format is toxicity, cell-based. Conditions: human, u87-cd4-cxcr4, 5000 µM.

The inhibition is the change of the read-out against control, counted positive when it falls. `CCCc1c(C)nc2ccccc2c1O`: the results for the inhibition in series [1] and in series [6] were 9% and -2%, respectively. Also, the “% Cell Death” value in series [2] was 5; in series [3], 8; in series [4] it was 22; in series [5] it was 31; in series [7], 18; in series [8], 51.
As to `CN(C)CCCNc1c2ccccc2nc2ccccc12`, the inhibition in series [1] was 1%; in series [6], 3%. Also, the “% Cell Death” value in series [2] was 30; in series [3] it was 21; in series [4], 8; in series [5], 15; in series [7] it was 30; in series [8], -4.
For `COc1ccc(C(=O)Nc2ccc(Cl)cc2C(=O)Nc2ccncc2)cc1`, the “% Cell Death” value in series [2] is recorded as 14; in series [3], 22; in series [4], -7; in series [5], -11; in series [7], 0; in series [8] it was 33. In addition, the inhibition in series [6] was found to be 0%.
In the case of `Cc1cc(N(C)C)nc(Nc2ccc(NC(=O)Nc3ccccc3)cc2)n1`, the “% Cell Death” value in series [2] is 12; in series [3], 40; in series [4], -5; in series [5] it was -7; in series [7], 18; in series [8], -30. For the same molecule, the inhibition in series [6] turned out to be 4%.
Turning to `Cc1ccc(C(=O)c2oc3ccc4c(C)cc(=O)oc4c3c2C)cc1`, the “% Cell Death” value in series [2] was found to be 59; in series [3] it was 94; in series [4], 7; in series [5], 22; in series [7] it was 83; in series [8], 92. Also, the inhibition in series [6] is 8%.
